Molecules are shown by their SMILES.

The nature of the assay: Agonist activity at RORgammat in C57 mouse CD4+ T cells assessed as induction of Th17 cells differentiation by measuring increase in IL17 production measured after 4 days by flow cytometry analysis. Background: In flow cytometry, cells or beads pass a laser one at a time.
As to `CC(=O)N1CCN(c2ccc3c(c2)CCN(S(=O)(=O)N(C)Cc2ccccc2C(F)(F)F)C3)CC1`, the EC50 (commonly the concentration that produces a half-maximal response) is 1120 nM.

Consider `CC(=O)N1CCN(c2ccc3c(c2)CCN(S(=O)(=O)N(C)Cc2ccccc2Cl)C3)CC1`, for which the EC50 was determined as 230 nM.

Take `CC(=O)N1CCN(c2ccc3c(c2)CCN(S(=O)(=O)N(C)Cc2c(F)cccc2Cl)C3)CC1`: the EC50 is 220 nM.
